Each block holds one molecule with its values, some of them ahead of it.
System: NCI-H196 complex spheroid growth, percent test/control
Experiment: Anticancer human tumor NCI-H196 cell line growth inhibition [AhR];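 note: seven days of drug exposure starting three days after plating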;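 for viability, T/C: 100% = DMSO vehicle control wells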
Details: for IC50: curve of first compound; for viability, T/C: stronger effect = lower value
Description: Multicellular complex tumor spheroid response to aryl hydrocarbon receptor antagonists in combination with a variety of drugs and investigational agents in selected tumor cell lines
The current study was undertaken to assess response to aryl hydrocarbon receptor antagonists in combination with standard-of-care drugs and investigational agents in solid tumor complex spheroid models. Complex spheroids include a stromal component modeled by human endothelial cells (HUVEC) and fibroblasts modeled by human mesenchymal stem cells (MSCs). The concentration ranges selected for each drug and investigational agent were based upon clinically achievable concentrations if the clinical Cmax of the agent was known.
Compounds. The drugs and investigational agents: BAY 2416964 (NSC825713), GNF351 (NSC835774), CH-223191 (NSC835775), CPI-455 (NSC825282), aza-TdCyd (NSC777586), decitabine (NSC127716), belinostat (NSC758774), entinostat (NSC756642), pevonedistat (NSC761192), tazemetostat (NSC777109), talazoparib (NSC765396), olaparib (NSC753686), selinexor (NSC780203), nedisertib (M3814, NSC802822), bortezomib (NSC756655), venetoclax (NSC766270), doxorubicin (NSC123127), elimusertib (BAY189344, NSC800525), ceralasertib (AZD6738, NSC777638), TAK-243 (NSC785004), alisertib (NSC759677), etoposide (NSC141540), topotecan (NSC609699), eribulin (NSC707389), gemcitabine (NSC613327), carboplatin (NSC241240), cisplatin (NSC119875), and SN-38 (NSC673596) were obtained from the National Cancer Institute (NCI) Developmental Therapeutics Program Chemical Repository (32). The FDA-approved anticancer drug set is available from the Developmental Therapeutics Program at https://dtp.cancer.gov/organization/dscb/obtaining/available plates.htm. […] The stock solutions were prepared in dimethyl sulfoxide (DMSO, Sigma-Aldrich, St. Louis, MO, cat. D2650), except for the platinum compounds which were prepared in saline (Quality Biological, Gaithersburg, MD, cat. 114-055-101), at 800-fold the tested concentration and stored at -70 degrees C prior to their use. All drugs and investigational agents were tested over a range starting from a high concentration at or near the clinical Cmax and decreasing in half-log increments. If the clinical Cmax for an agent had not been determined, the highest concentration tested was 10 microM (Table 1).
Cell Culture. All cells were maintained in an incubator at 37 degrees C and 5% CO2 with 95% humidity. The PDC lines were cultured according to standard operating procedures established by the NCI PDMR (https://pdmr.cancer.gov). Briefly, all PDCs were thawed and cultured in Matrigel-coated flasks prepared with a working solution of 1X Ham's F-12 nutrient mix, without supplementation (Invitrogen, Waltham, MA, cat. 11765054), 100 U/mL penicillin-streptomycin (Invitrogen, cat. 15140122), and 2.5% Matrigel (Corning Inc., Corning, NY, cat. 354248) for the first three passages. All PDCs were cultured in complete DMEM/F-12 media containing advanced DMEM/F-12 (Invitrogen, cat. 12634028), 4.9% defined fetal bovine serum, heat inactivated (HyClone Laboratories Inc., Logan, UT, cat. SH30070.03HI), 389 ng/mL hydrocortisone (Sigma-Aldrich, cat. H4001), 9.7 ng/mL human EGF recombinant protein (Invitrogen, cat. PHG0313), 23.4 microg/mL adenine (Sigma-Aldrich, cat. A2786), 97.3 U/mL penicillin-streptomycin (Invitrogen, cat. 15140122), 1.9 mM L-glutamine (Invitrogen, cat. 25030081), and 9.7 microM Y-27632 dihydrochloride (Tocris Bioscience, Bristol, United Kingdom, cat. 1254). The PDCs were cultured in complete DMEM/F12 media without 10 microM Y-27632 dihydrochloride for at least two passages prior to the screen. The established cell lines NCI-H1341 and […] were cultured in DMEM/F-12, HEPES (Invitrogen, cat. 11330032), 5% defined fetal bovine serum (HyClone Laboratories Inc., cat. SH30070.03), ITS premix universal culture supplement [insulin (5 microg/mL), transferrin (5 microg/mL), and selenious acid (5 ng/mL)] […]

[1] = second compound 0.1 µM, first compound 0.00316 µM
[2] = second compound 0.1 µM, first compound 0.01 µM
[3] = second compound 0.1 µM, first compound 0.0316 µM
[4] = second compound 0.1 µM, first compound 0.1 µM
[5] = second compound 0.316 µM, first compound 0.00316 µM
[6] = second compound 0.316 µM, first compound 0.01 µM
[7] = second compound 0.316 µM, first compound 0.0316 µM
[8] = second compound 0.316 µM, first compound 0.1 µM
[9] = second compound 1 µM, first compound 0.00316 µM
[10] = second compound 1 µM, first compound 0.01 µM
[11] = second compound 1 µM, first compound 0.0316 µM
[12] = second compound 1 µM, first compound 0.1 µM
[13] = second compound 3.16 µM, first compound 0.00316 µM
[14] = second compound 3.16 µM, first compound 0.01 µM
[15] = second compound 3.16 µM, first compound 0.0316 µM
[16] = second compound 3.16 µM, first compound 0.1 µM
[17] = second compound 10 µM, first compound 0.00316 µM
[18] = second compound 10 µM, first compound 0.01 µM
[19] = second compound 10 µM, first compound 0.0316 µM
[20] = second compound 10 µM, first compound 0.1 µM
[21] = second compound 0.1 µM, first compound 0.316 µM
[22] = second compound 0.1 µM, first compound 1 µM
[23] = second compound 0.1 µM, first compound 3.16 µM
[24] = second compound 0.1 µM, first compound 10 µM
[25] = second compound 0.316 µM, first compound 0.316 µM
[26] = second compound 0.316 µM, first compound 1 µM
[27] = second compound 0.316 µM, first compound 3.16 µM
[28] = second compound 0.316 µM, first compound 10 µM
[29] = second compound 1 µM, first compound 0.316 µM
[30] = second compound 1 µM, first compound 1 µM
[31] = second compound 1 µM, first compound 3.16 µM
[32] = second compound 1 µM, first compound 10 µM
[33] = second compound 3.16 µM, first compound 0.316 µM
[34] = second compound 3.16 µM, first compound 1 µM
[35] = second compound 3.16 µM, first compound 3.16 µM
[36] = second compound 3.16 µM, first compound 10 µM
[37] = second compound 10 µM, first compound 0.316 µM
[38] = second compound 10 µM, first compound 1 µM
[39] = second compound 10 µM, first compound 3.16 µM
[40] = second compound 10 µM, first compound 10 µM

- IC50 (second compound 0.1 µM): > 100 nM
- IC50 (second compound 0.316 µM): > 100 nM
- IC50 (second compound 1 µM): > 100 nM
- IC50 (second compound 3.16 µM): > 100 nM
- IC50 (second compound 10 µM): > 100 nM
Compound: CC[C@@]1(O)C(=O)OCc2c1cc1n(c2=O)Cc2cc3c(CN(C)C)c(O)ccc3nc2-1 + CC(CO)NC(=O)c1cc(-c2ccc(Cl)cc2)nn(-c2cnn(C)c2)c1=O
- viability, T/C (second compound 0.1 µM, first compound 0.000316 µM): 104%
- viability, T/C (second compound 0.1 µM, first compound 0.001 µM): 101%
- viability, T/C [1]: 97.8%
- viability, T/C [2]: 97%
- viability, T/C [3]: 111%
- viability, T/C [4]: 119%
- viability, T/C (second compound 0.316 µM, first compound 0.000316 µM): 111%
- viability, T/C (second compound 0.316 µM, first compound 0.001 µM): 110%
- viability, T/C [5]: 105%
- viability, T/C [6]: 105%
- viability, T/C [7]: 111%
- viability, T/C [8]: 129%
- viability, T/C (second compound 1 µM, first compound 0.000316 µM): 98.6%
- viability, T/C (second compound 1 µM, first compound 0.001 µM): 108%
- viability, T/C [9]: 116%
- viability, T/C [10]: 100%
- viability, T/C [11]: 113%
- viability, T/C [12]: 119%
- viability, T/C (second compound 3.16 µM, first compound 0.000316 µM): 110%
- viability, T/C (second compound 3.16 µM, first compound 0.001 µM): 111%
- viability, T/C [13]: 114%
- viability, T/C [14]: 96.8%
- viability, T/C [15]: 120%
- viability, T/C [16]: 118%
- viability, T/C (second compound 10 µM, first compound 0.000316 µM): 111%
- viability, T/C (second compound 10 µM, first compound 0.001 µM): 112%
- viability, T/C [17]: 116%
- viability, T/C [18]: 103%
- viability, T/C [19]: 113%
- viability, T/C [20]: 124%

- IC50 (second compound 0.1 µM): > 10000 nM
- IC50 (second compound 0.316 µM): > 10000 nM
- IC50 (second compound 1 µM): > 10000 nM
- IC50 (second compound 3.16 µM): > 10000 nM
- IC50 (second compound 10 µM): > 10000 nM
Compound: COc1cc(C2c3cc4c(cc3C(OC3OC5COC(C)OC5C(O)C3O)C3COC(=O)C23)OCO4)cc(OC)c1O (stereo not given) + CC(CO)NC(=O)c1cc(-c2ccc(Cl)cc2)nn(-c2cnn(C)c2)c1=O
- viability, T/C [3]: 113%
- viability, T/C [4]: 116%
- viability, T/C [21]: 101%
- viability, T/C [22]: 112%
- viability, T/C [23]: 104%
- viability, T/C [24]: 101%
- viability, T/C [7]: 109%
- viability, T/C [8]: 118%
- viability, T/C [25]: 102%
- viability, T/C [26]: 104%
- viability, T/C [27]: 109%
- viability, T/C [28]: 94.9%
- viability, T/C [11]: 117%
- viability, T/C [12]: 106%
- viability, T/C [29]: 119%
- viability, T/C [30]: 106%
- viability, T/C [31]: 110%
- viability, T/C [32]: 105%
- viability, T/C [15]: 103%
- viability, T/C [16]: 110%
- viability, T/C [33]: 119%
- viability, T/C [34]: 110%
- viability, T/C [35]: 117%
- viability, T/C [36]: 97.9%
- viability, T/C [19]: 126%
- viability, T/C [20]: 128%
- viability, T/C [37]: 114%
- viability, T/C [38]: 109%
- viability, T/C [39]: 115%
- viability, T/C [40]: 95.6%

- IC50 (second compound 0.1 µM): 943 nM
- IC50 (second compound 0.316 µM): 1080 nM
- IC50 (second compound 1 µM): 967 nM
- IC50 (second compound 3.16 µM): 895 nM
- IC50 (second compound 10 µM): 732 nM
Compound: COc1cccc2c1C(=O)c1c(O)c3c(c(O)c1C2=O)CC(O)(C(=O)CO)CC3OC1CC(N)C(O)C(C)O1 (stereo not given) + CC(CO)NC(=O)c1cc(-c2ccc(Cl)cc2)nn(-c2cnn(C)c2)c1=O
- viability, T/C [3]: 109%
- viability, T/C [4]: 105%
- viability, T/C [21]: 85.6%
- viability, T/C [22]: 52.8%
- viability, T/C [23]: 1.78%
- viability, T/C [24]: 0.87%
- viability, T/C [7]: 102%
- viability, T/C [8]: 116%
- viability, T/C [25]: 100%
- viability, T/C [26]: 53.8%
- viability, T/C [27]: 1.55%
- viability, T/C [28]: 1.77%
- viability, T/C [11]: 110%
- viability, T/C [12]: 116%
- viability, T/C [29]: 101%
- viability, T/C [30]: 49.6%
- viability, T/C [31]: 1.06%
- viability, T/C [32]: 2.36%
- viability, T/C [15]: 113%
- viability, T/C [16]: 110%
- viability, T/C [33]: 104%
- viability, T/C [34]: 44.4%
- viability, T/C [35]: 0.77%
- viability, T/C [36]: 1.04%
- viability, T/C [19]: 119%
- viability, T/C [20]: 122%
- viability, T/C [37]: 89.9%
- viability, T/C [38]: 36.6%
- viability, T/C [39]: 0.56%
- viability, T/C [40]: 2.67%

- IC50 (second compound 0.1 µM): > 1000 nM
- IC50 (second compound 0.316 µM): > 1000 nM
- IC50 (second compound 1 µM): > 1000 nM
- IC50 (second compound 3.16 µM): > 1000 nM
- IC50 (second compound 10 µM): > 1000 nM
Compound: Nc1ncn(C2CC(O)C(CO)O2)c(=O)n1 (stereo not given) + CC(CO)NC(=O)c1cc(-c2ccc(Cl)cc2)nn(-c2cnn(C)c2)c1=O
- viability, T/C [1]: 112%
- viability, T/C [2]: 117%
- viability, T/C [3]: 105%
- viability, T/C [4]: 106%
- viability, T/C [21]: 120%
- viability, T/C [22]: 126%
- viability, T/C [5]: 107%
- viability, T/C [6]: 116%
- viability, T/C [7]: 114%
- viability, T/C [8]: 107%
- viability, T/C [25]: 114%
- viability, T/C [26]: 120%
- viability, T/C [9]: 120%
- viability, T/C [10]: 118%
- viability, T/C [11]: 128%
- viability, T/C [12]: 108%
- viability, T/C [29]: 110%
- viability, T/C [30]: 115%
- viability, T/C [13]: 126%
- viability, T/C [14]: 130%
- viability, T/C [15]: 120%
- viability, T/C [16]: 104%
- viability, T/C [33]: 121%
- viability, T/C [34]: 115%
- viability, T/C [17]: 141%
- viability, T/C [18]: 119%
- viability, T/C [19]: 137%
- viability, T/C [20]: 114%
- viability, T/C [37]: 133%
- viability, T/C [38]: 116%

From PubChem BioAssay AID1919016 (Molecular Pharmacology Branch, DTP, NCI, 2023)
